“And” between values parts separate entries of the source, which are not always exact repeats. Equal values may be shown once.
Legend:
[1] = Filterability of ddCTP/PSC (filtration yield); assay type: physicochemical; conditions: ddCTP with or without cationic PSC
[2] = cited from earlier work

dideoxy cytidine triphosphate [Free ddCTP]
Filtration yield % [1]: 99.4 ± 0.8%

COc1cccc2c1C(=O)c1c(O)c3c(c(O)c1C2=O)C[C@@](O)(C(=O)CO)C[C@@H]3O[C@H]1C[C@H](N)[C@H](O)[C@H](C)O1 [Doxorubicin]
pKa [2]: 8.5 and 8.2-8.5

From patent US6759060B2, “Synthetic particulate vectors and preparation process” (Biovector Therapeutics, S.A., priority 1993, dated 2004)
